The values below come from patent US11603355B2, “Charged ion channel blockers and methods for use” (Nocion Therapeutics, Inc., priority 2019, dated 2023).

Counter-ions that a name gives are not always drawn.

Data set [1] deals with T1, NaV1.7 (Homo sapiens, UniProt Q15858).
T1 construct: expressed in transfected cells; host or cells: HEK293 (tetracycline-inducible)
Kind of data set: Automated patch clamp (Qube 384), internal block of NaV1.7. It counts as cell-based. The settings on record: IC50, compound in internal solution, HEK293 cells, read-out: Nav1.7 Intracellular Inhibition. As for the experimental part:
(§1) NaV1.7 was expressed in HEK293 cells upon induction with tetracycline. Cells were cultured in DMEM containing 10% dialyzed Fetal Bovine Serum (VWR, Radnor, Pa.), 1% Glutamax (VWR, Radnor, Pa.), 1% Penicillin-Streptomycin (VWR, Radnor, Pa.), 100 mg/L Hygromycin (Thermo Fisher Scientific, Waltham, Mass. and 5 mg/L Blasticidin (Alfa Aesar, Haverhill, Mass.). Cells were grown and maintained at 37° C. in a humidified environment containing 10% CO2 in air. Cells were detached from the culture flask for passage and harvested using 0.05% Trypsin-EDTA (Thermo Fisher Scientific, Waltham, Mass.). To induce NaV1.7, cells were induced with tetracycline (0.1-1 μg/mL, IBI Scientific, Peosta, Iowa) the day before recording.
(§2) Before experiments, cells were washed with DPBS (VWR, Radnor, Pa.), digested with Detachin (VWR Radnor, Pa.) and then triturated 10 times in CHO Serum-Free Media (VWR Radnor, Pa.) to resuspend the cells and to break apart cell aggregates. Cells were counted and the final concentration was set at 2-5 million cells per mL.
(§3) The intracellular solution contained the following: 140 mM CsF, 1 mM/5 mM EGTA/CsOH, 10 mM HEPES, 10 mM NaCl, adjusted to pH 7.3 with CsOH, and osmolality to 320 with OSM solution. The external solution contained the following: 145 mM NaCl, 4 mM KCl, 1 mM MgCl2, 2 mM CaCl2), 10 mM HEPES, 10 mM Glucose, adjusted to pH 7.4 with CsOH and osmolality to 305 with OSM solution. The OSM solution was a normal Ringer solution containing (in mM) NaCl 155, HEPES 10, sucrose, KCl 3.5, CaCl2) 1.5, MgCl2 1 adjusted to pH 7.4 with NaOH. All chemicals are from Sigma-Aldrich, St. Louis, Mo. In order to test the degree of internal block by test compounds, the compounds were dissolved in internal solution at the indicated test concentration. […] In order to test the degree of external block by test compounds the compounds were dissolved in external solution at the indicated test concentration.
(§4) Automated Patch Clamps were performed on Qube 384 (Sophion Bioscience, Woburn Mass.) with multihole Qchips at a temperature setting of 22 degrees. The whole cells configuration was formed with default Qube seal and break-in parameter. The membrane potential was held at −100 mV before the voltage protocol began. Two voltage protocols were followed.
(§5) Step 1: Cells were held at −100 mV with a depolarized pulse to −20 mV for 10 ms, the interval was set at 5 s. Currents were corrected by default leak subtraction from every pulse. The duration was set at 5 mins.
(§6) Step 2: Cells were held at −100 mV with a depolarized pulse to −20 mV for 10 ms. The frequency was 5 Hz. Currents were corrected by leak subtraction calculated before step 2. The duration was set at 4 mins.
After Step 2, the Qchip was removed from the recording chamber. The internal solution was changed with solutions containing test compounds. Qchips were held at −100 mV without pulsing after being replaced in the recording chamber. The total solution switching time was 8 minutes. After the internal solution exchange, Cells were recorded and step 2 for repeated for 10 minutes.
Data analysis was performed by Sophion Analyzer. Cells were filtered with minimum 50 MOhm seal resistance and minimum 5 nA starting current. The rundown of the currents was corrected with control cells (Non-Drug). The remaining was calculated by averaging last 3 points in the end of experiments. The base line was calculated as the average of last 3 points of Step 2.
IC50 curves were plotted with DR-plots/Hill function (a dose-response plot with a Hill fit).
Representative examples of the invention were tested for intracellular inhibition of NaV 1.7 in the automated patch clamp assay. Activity Range is reported as IC50: “++++” (<0.3 μM), “+++” (0.3-1 μM), “++” (1-3 μM) or “+” (3-10 μM).
On the technique in general: Patch clamp records ionic current or voltage across a cell membrane.

In data set [2] the target is T1, NaV1.7. In words: Automated patch clamp (Qube 384), external block of NaV1.7. It counts as cell-based. The settings on record: IC50, compound in external solution, HEK293 cells, read-out: Nav1.7 Extracellular Inhibition. As for the experimental part:
as §1, §2, §3, §4, §5, §6
After Step 2, the external solution was changed with solutions containing test compounds. Qchips were held at −100 mV without pulsing. The total solution switching time was 8 minutes. After the external solution exchange, cells were recorded using the same procedure as step 2 for 10 minutes.
Data analysis was performed by Sophion Analyzer. Data were corrected with control cells (Non-Drug). The IC50 data were plotted with DR-plots/Hill function (a dose-response plot with a Hill fit). Representative examples of the invention were tested for extracellular inhibition of NaV 1.7 in the automated patch clamp assay. Activity Range is reported as IC50: “++++” ([…], “+++” (1-3 μM), “++” ([…]) or “+” (>10 μM). The results are presented below.

Data set [3] is described as follows: PAMPA membrane permeability assay. To be noted: permeability coefficient, pH 7.4 buffer, GIT lipid, 4 hours incubation. It counts as in vitro ADME. As to the method: The PAMPA assay (pION, Inc., Woburn Mass.) was used to determine the ability of compounds of the invention to cross an artificial lipid membrane by passive diffusion. Test compounds were dissolved in DMSO (10 mM) and diluted 200-fold in buffer (pION Inc., pH 7.4) to provide 50 uM stock solutions. Buffer (150 μL) was added to a UV blank plate and stock solutions (150 μL) were transferred to a UV reference plate. The blank and reference spectrum were read using a spectrophotometer. Stock solutions (200 μL) were added to the donor plate of the PAMPA sandwich plate and an accept plate painted with GIT lipid (pION Inc, 5) was placed on top. Buffer (200 μL) was added to the acceptor plate and the PAMPA sandwich plate was incubated for 4 hours. Aliquots (150 μL) from the acceptor plate were added to a UV plate and read as acceptor spectrum. Aliquots (150 μL) of the donor solutions were added to a UV analysis plate and read as donor spectrum. The permeability coefficient of test compounds was calculated using PAMPA Explorer™ software (version 3.5.0.4) based on the AUC of the reference plate, the donor plate, and the acceptor plate.
The PAMPA permeability results (10^−6 cm/s) of representative compounds are reported as “+” (<0.1 10^−6 cm/s), “++” (0.1-2.0 10^−6 cm/s), “+++” (2.0-10.010^−6 cm/s) or “++++” (>10.0 10^−6 cm/s).
Background: In PAMPA a lipid-coated filter parts donor from acceptor wells.

The target of data set [4] is T1, NaV1.7. Kind of data set: Manual patch clamp, internal block of NaV1.7 current. It counts as cell-based. To be noted: compound in internal solution, HEK293 cells, read-out: Nav1.7 Intracellular Inhibition. As to the method:
Representative compounds of the invention were synthesized according to the described methods and tested for the ability to inhibit voltage-gated sodium channels.
as §1, with “recording and plated onto 24-well plates. Cells were washed with DPBS (VWR, Radnor, Pa.), trypsinized and then triturated five times in 10 mL of growth media to break apart cell aggregates. For one 24-well plate, 2 mL of cell suspension was mixed with 23 mL of fresh growth media and 0.1-1 μg/mL tetracycline added. 1 ml of mixed media with cells was then added to each well of a 24-well plate, with a 12 mm coverslip already placed in the bottom of the well. Cells were then incubated in 37° C. and 10% CO2 overnight.” for “recording.”
The intracellular solution contained the following (in mM) CsCl 135, NaCl 10, EGTA 10, HEPES 10, MgCl2 2, adjusted to pH 7.2 with CsOH. The external solution was a normal Ringer solution containing (in mM) NaCl 155, HEPES 10, glucose 10, KCl 3.5, CaCl2 1.5, MgCl2 1 adjusted to pH 7.4 with NaOH. CsCl is from Alfa Aesar, Haverhill, Mass. All other chemicals are from Sigma-Aldrich, St. Louis, Mo. In order to test the degree of internal block by test compounds the compounds were dissolved in internal solution at the indicated test concentration. […] In order to test the degree of external block by test compounds the compounds were dissolved in external solution at the indicated test concentration.
18-24 hours after cells were induced with tetracycline, coverslips were placed into a chamber filled with Normal Ringer solution at room temperature and the chamber placed on a microscope. Pipettes were pulled from borosilicate glass on a P97 puller (Sutter Instrument, Novato, Calif.) and polished with a MF-830 Microforge (Narishige International USA, Inc., Amityville, N.Y.) to have a resistance of 1.5-2.5 MΩ when filled with CsCl internal solution at room temperature. Healthy cells (those that are round and translucent with no visible blemishes) were chosen for seal formation. A seal was formed between the pipette and the cell, and a brief pulse of suction was used to “break in” and establish the whole-cell configuration. The membrane potential was held at −100 mV before the voltage protocol began. Only cells with series resistance between 1.5-5 MΩ were retained for analysis. The voltage protocol was as follows: Cells were held at −100 mV for 12 ms followed by a hyperpolarizing step to −105 mV for 12 ms to monitor the leak. Cells were then stepped back to −100 mV for 40 ms. Cells were then depolarized to −20 mV for 10 ms and then returned to −100 mV for 26 ms.
Once the recording was started, the voltage protocol was run at 30 second intervals for 5 minutes to get a stable baseline. This was followed by four 30-second periods of 5 Hz stimulation of the same voltage protocol separated by 1 minute of rest which was then followed by 0.33 Hz stimulation after the last train. Currents were recorded using PatchMaster software with Heka EPC10 (HEKA Electronics, Lambrecht, Germany). Only cells with inward current amplitudes at −20 mV between 400 pA and 4 nA were accepted. In addition, cells having leak currents greater than 10% of their current amplitudes were discarded. […]

T1 sequence (Q15858 whole entry): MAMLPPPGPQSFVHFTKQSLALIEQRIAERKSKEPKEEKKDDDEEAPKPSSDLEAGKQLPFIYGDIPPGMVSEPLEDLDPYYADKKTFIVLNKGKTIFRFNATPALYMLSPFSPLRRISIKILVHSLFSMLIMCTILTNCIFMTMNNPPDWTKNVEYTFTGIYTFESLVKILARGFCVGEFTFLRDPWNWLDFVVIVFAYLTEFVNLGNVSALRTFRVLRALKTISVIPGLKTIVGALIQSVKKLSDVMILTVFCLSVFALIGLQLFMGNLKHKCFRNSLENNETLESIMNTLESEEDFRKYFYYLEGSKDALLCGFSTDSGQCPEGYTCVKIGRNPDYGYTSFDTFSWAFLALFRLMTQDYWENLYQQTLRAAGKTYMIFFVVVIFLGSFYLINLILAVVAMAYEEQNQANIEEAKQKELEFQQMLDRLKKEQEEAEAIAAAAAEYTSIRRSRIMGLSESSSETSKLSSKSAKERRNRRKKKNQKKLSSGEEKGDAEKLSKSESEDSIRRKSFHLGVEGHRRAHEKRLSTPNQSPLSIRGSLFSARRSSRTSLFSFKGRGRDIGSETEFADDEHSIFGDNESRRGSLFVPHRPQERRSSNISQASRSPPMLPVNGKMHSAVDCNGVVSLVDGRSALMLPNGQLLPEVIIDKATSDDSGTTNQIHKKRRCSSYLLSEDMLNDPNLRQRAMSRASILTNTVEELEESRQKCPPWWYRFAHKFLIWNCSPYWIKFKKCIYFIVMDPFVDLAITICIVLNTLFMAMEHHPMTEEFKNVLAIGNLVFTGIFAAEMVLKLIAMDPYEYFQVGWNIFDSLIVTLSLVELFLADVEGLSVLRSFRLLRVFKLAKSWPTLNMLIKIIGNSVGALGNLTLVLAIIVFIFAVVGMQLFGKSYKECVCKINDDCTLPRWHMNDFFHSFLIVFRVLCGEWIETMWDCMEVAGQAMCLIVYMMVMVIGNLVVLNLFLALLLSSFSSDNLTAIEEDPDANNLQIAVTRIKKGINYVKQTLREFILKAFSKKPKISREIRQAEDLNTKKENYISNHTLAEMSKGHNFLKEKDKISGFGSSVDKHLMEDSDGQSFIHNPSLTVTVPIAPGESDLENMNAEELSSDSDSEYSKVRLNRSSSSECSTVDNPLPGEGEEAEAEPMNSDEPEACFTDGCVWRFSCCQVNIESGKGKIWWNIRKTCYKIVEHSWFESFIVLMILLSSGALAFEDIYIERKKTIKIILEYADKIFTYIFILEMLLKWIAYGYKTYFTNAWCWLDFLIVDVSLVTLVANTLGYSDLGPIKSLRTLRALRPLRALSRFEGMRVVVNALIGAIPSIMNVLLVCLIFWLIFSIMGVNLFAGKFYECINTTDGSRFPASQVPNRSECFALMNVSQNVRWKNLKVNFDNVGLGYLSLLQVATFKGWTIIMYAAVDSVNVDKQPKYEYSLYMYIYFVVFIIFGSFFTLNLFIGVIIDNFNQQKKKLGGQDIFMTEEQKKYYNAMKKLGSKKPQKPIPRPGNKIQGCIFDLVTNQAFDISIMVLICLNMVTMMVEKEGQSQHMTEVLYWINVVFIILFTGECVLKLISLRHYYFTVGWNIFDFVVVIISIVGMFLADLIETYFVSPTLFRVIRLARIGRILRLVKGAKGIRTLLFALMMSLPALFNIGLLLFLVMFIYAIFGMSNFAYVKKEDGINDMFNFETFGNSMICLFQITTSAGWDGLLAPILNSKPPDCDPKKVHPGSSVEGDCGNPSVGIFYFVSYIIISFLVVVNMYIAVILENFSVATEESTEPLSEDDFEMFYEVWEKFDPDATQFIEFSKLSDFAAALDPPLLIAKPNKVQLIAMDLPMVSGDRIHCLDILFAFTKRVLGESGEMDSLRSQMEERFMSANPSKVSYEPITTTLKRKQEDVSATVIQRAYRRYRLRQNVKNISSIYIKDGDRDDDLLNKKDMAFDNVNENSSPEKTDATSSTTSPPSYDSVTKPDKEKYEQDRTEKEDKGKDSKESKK

For the compound `Cc1cccc(C)c1NC(=O)C[N+]1(Cc2ccccc2)CCCCC1` [Compound 4], the values for the IC50 on NaV1.7 [1] and on NaV1.7 [2] were 0.3 to 1 µM and greater than 10 µM, respectively.
Regarding `Cc1cccc(C)c1NC(=O)C[N+]1(Cc2ccccc2)CCCC1` [Compound 5], the results for the IC50 at NaV1.7 [1] and on NaV1.7 [2] were 1 to 3 µM and greater than 10 µM, respectively.
As to `CCC(C(=O)Nc1c(C)cccc1C)[N+]1(Cc2ccccc2)CCCCC1` (stereo not shown) [Compound 6], the values for the IC50 at NaV1.7 [1] and on NaV1.7 [2] were 0.3 to 1 µM and greater than 10 µM, respectively.
With `Cc1cccc(C)c1NC(=O)C[N+]1(Cc2ccccc2)CCCC(C(=O)OCC(C)C)C1.[Br-]` (stereo not shown) [Compound 48A], the IC50 at NaV1.7 [1] was 1 to 3 µM. For the same compound, the “PAMPA (10^−6 cm/s)” value in data set [3] was “+ (“+” (<0.1 10^−6 cm/s))”.
Take `Cc1cccc(C)c1NC(=O)C[N+]1(Cc2ccccc2)CCCC(C(=O)OC2CCCC2)C1.[Br-]` (stereo not shown) [Compound 50A]: the IC50 on NaV1.7 [1] was 1 to 3 µM. Moreover, the “PAMPA (10^−6 cm/s)” value in data set [3] is listed as “+ (“+” (<0.1 10^−6 cm/s))”.
For `Cc1cccc(C)c1NC(=O)C[N+]1(Cc2ccccc2)CCCC(C(=O)NC2CCCC2)C1.[Br-]` (stereo not shown) [Compound 60A] the same measures were 1 to 3 µM and “+ (“+” (<0.1 10^−6 cm/s))”.
The like results for `Cc1cccc(C)c1NC(=O)C[N+]1(Cc2ccccc2)CCCC(C(=O)NC2CCCCC2)C1.[Br-]` (stereo not shown) [Compound 61A] were, in that order, 3 to 10 µM and “+ (“+” (<0.1 10^−6 cm/s))”.
For `Cc1cccc(C(=O)N(C)C)c1NC(=O)C[N+]1(Cc2ccccc2)CCCCCC1.[Br-]` [Compound 78A] the same measures were 3 to 10 µM and “+ (“+” (<0.1 10^−6 cm/s))”.
On to `Cc1cccc(O)c1NC(=O)C[N+]1(Cc2ccccc2)CCCCCC1.[Br-]` [Compound 79A, 1-benzyl-1-(2-((2-hydroxy-6-methylphenyl)amino)-2-oxoethyl) azepan-1-ium formate], for which, on NaV1.7 [1], the IC50 fell in the range of 1 to 3 µM. Moreover, the “PAMPA (10^−6 cm/s)” value in data set [3] is given as “+ (“+” (<0.1 10^−6 cm/s))”.
Consider `Cc1cccc(C)c1OC(=O)C[N+]1(Cc2ccccc2)CCCCCC1` [Compound 83A, 1-benzyl-1-(2-(2,6-dimethylphenoxy)-2-oxoethyl) azepan-1-ium 2,2,2-trifluoroacetate], for which the IC50 at NaV1.7 [1] is 0.3 to 1 µM; at NaV1.7 [2], 1 to 3 µM.
Turning to `Cc1cccc(C)c1NCC[N+]1(Cc2ccccc2)CCCCCC1` [Compound 84A, 1-benzyl-1-(2-((2,6-dimethylphenyl)amino)ethyl) azepan-1-ium trifluoroacetate], the IC50 at NaV1.7 [1] was 3 to 10 µM. Further, the “PAMPA (10^−6 cm/s)” value in data set [3] is “+ (“+” (<0.1 10^−6 cm/s))”.
`Cc1cccc(C)c1OCC[N+]1(Cc2ccccc2)CCCCCC1` [Compound 85A, 1-benzyl-1-(2-(2,6-dimethylphenoxy)ethyl) azepan-1-ium bromide]: on NaV1.7 [4] (% inhibition at 3 μM test concentration), the inhibition at 3 µM was greater than 90%. Moreover, the inhibition at 10 µM on NaV1.7 [4] (% inhibition at 10 μM test concentration) was greater than 95%. For the same compound, the IC50 on NaV1.7 [1] is 1 to 3 µM.

One may read the inhibition as the relative decrease from the control value, in per cent.
